In US20100267561A1, “HERBICIDAL PYRIDAZINONE DERIVATIVES” (priority 2007, published 2010):

Experiments:
Assay in all cases: Test B pre-/postemergence plant response
Format in all cases: in vivo
[1] = tested on: Italian ryegrass (Lolium multiflorum); conditions: for Ryegrass, Italian plant response rating: 8 g ai/ha
Procedure, shortened: (§1)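 Preemergence and postemergence (plants 2-18 cm, 1- to 4-leaf stage) applications used test chemicals in a non-phytotoxic solvent with surfactant. Plants were held in a greenhouse 13 to 15 days, then rated visually against controls on a 0-100 scale (0 no effect, 100 complete control).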

soybean (Glycine max) = conditions: for Soybean plant response rating: 8 g ai/ha
Procedure, shortened: as §1

[2] = tested on: pigweed (Amaranthus retroflexus); conditions: for Pigweed plant response rating: 8 g ai/ha
Procedure, shortened: as §1

[3] = tested on: lambsquarters (Chenopodium album); conditions: for Lambsquarters plant response rating: 8 g ai/ha
Procedure, shortened: as §1

[4] = tested on: goosegrass (Eleusine indica); conditions: for Goosegrass plant response rating: 8 g ai/ha
Procedure, shortened: as §1

[5] = tested on: blackgrass (Alopecurus myosuroides); conditions: for Blackgrass plant response rating: 8 g ai/ha
Procedure, shortened: as §1

[6] = tested on: Russian thistle (Salsola iberica); conditions: Preemergence
Procedure, shortened: as §1

[7] = tested on: johnsongrass (Sorghum halepense); conditions: for Johnsongrass plant response rating: 8 g ai/ha
Procedure, shortened: as §1

[8] = tested on: eastern black (E.B.) nightshade (Solanum ptycanthum); conditions: Preemergence
Procedure, shortened: as §1

kochia (Kochia scoparia) = conditions: for Plant response rating, Kochia: Postemergence
Procedure, shortened: as §1

[9] = tested on: woolly cupgrass (Eriochloa villosa); conditions: for Cupgrass, Woolly plant response rating: 8 g ai/ha
Procedure, shortened: as §1

[10] = tested on: giant foxtail (Setaria faberii); conditions: for Foxtail, Giant plant response rating: 8 g ai/ha
Procedure, shortened: as §1

[11] = tested on: common ragweed (Ambrosia elation); conditions: for Ragweed plant response rating: 8 g ai/ha
Procedure, shortened: as §1

[12] = tested on: catchweed bedstraw (Galium aparine); conditions: Preemergence
Procedure, shortened: as §1

[13] = Postemergence, 16 g ai/ha, scale 0 to 100
[14] = Postemergence, 31 g ai/ha, scale 0 to 100, 0 no effect, 100 complete control
[15] = Postemergence, 62 g ai/ha, scale 0 to 100, 0 no effect, 100 complete control
[16] = Preemergence, 16 g ai/ha, scale 0 to 100 (0 no effect, 100 complete control)
[17] = Preemergence, 31 g ai/ha, 0 to 100 scale, 0 no effect, 100 complete control
[18] = Preemergence, 62 g ai/ha, scale 0 to 100
[19] = 16 g ai/ha, scale 0 to 100 (0 no effect, 100 complete control)
[20] = 31 g ai/ha, 0 to 100 scale, 0 no effect, 100 complete control

Cc1cc(-c2ccc(Cl)cc2)nn1-c1c(OS(C)(=O)=O)cnn(C)c1=O [Compound 36]
Ryegrass, Italian plant response rating ([1]; postemergence, 0-100 scale): 10 | Plant response rating, Ryegrass, Italian [1, 13]: 30 | Plant response rating, Ryegrass, Italian [1, 14]: 65 | Plant response rating, Ryegrass, Italian [1, 15]: 95 | Plant response rating, Ryegrass, Italian [1, 16]: 98 | Plant response rating, Ryegrass, Italian [1, 17]: 100 | Plant response rating, Ryegrass, Italian [1, 18]: 100 | Ryegrass, Italian plant response rating ([1]; Preemergence, scale 0 to 100): 20 | Soybean plant response rating (soybean (Glycine max); postemergence, 0-100 scale): 0 | Plant response rating, Soybean (soybean (Glycine max); [13]): 0 | Plant response rating, Soybean (soybean (Glycine max); [15]): 0 | Plant response rating, Soybean (soybean (Glycine max); [16]): 0 | Plant response rating, Soybean (soybean (Glycine max); [17]): 0 | Plant response rating, Soybean (soybean (Glycine max); [18]): 0 | Soybean plant response rating (soybean (Glycine max); Preemergence, scale 0 to 100): 0 | Pigweed plant response rating ([2]; postemergence, 0-100 scale): 0 | Plant response rating, Pigweed [2, 13]: 0 | Plant response rating, Pigweed [2, 14]: 0 | Plant response rating, Pigweed [2, 15]: 0 | Plant response rating, Pigweed [2, 16]: 0 | Plant response rating, Pigweed [2, 17]: 0 | Plant response rating, Pigweed [2, 18]: 0 | Pigweed plant response rating ([2]; Preemergence, scale 0 to 100): 0 | Lambsquarters plant response rating ([3]; postemergence, 0-100 scale): 0 | Plant response rating, Lambsquarters [3, 13]: 0 | Plant response rating, Lambsquarters [3, 14]: 0 | Plant response rating, Lambsquarters [3, 15]: 0 | Plant response rating, Lambsquarters [3, 16]: 0 | Plant response rating, Lambsquarters [3, 17]: 0 | Plant response rating, Lambsquarters [3, 18]: 0 | Lambsquarters plant response rating ([3]; Preemergence, scale 0 to 100): 0 | Goosegrass plant response rating ([4]; postemergence, 0-100 scale): 0 | Plant response rating, Goosegrass [4, 13]: 100 | Plant response rating, Goosegrass [4, 14]: 100 | Plant response rating, Goosegrass [4, 15]: 100 | Plant response rating, Goosegrass [4, 16]: 100 | Plant response rating, Goosegrass [4, 17]: 100 | Plant response rating, Goosegrass [4, 18]: 100 | Goosegrass plant response rating ([4]; Preemergence, scale 0 to 100): 80 | Blackgrass plant response rating ([5]; postemergence, 0-100 scale): 0 | Plant response rating, Blackgrass [5, 13]: 50 | Plant response rating, Blackgrass [5, 14]: 50 | Plant response rating, Blackgrass [5, 15]: 80 | Plant response rating, Blackgrass [5, 16]: 80 | Plant response rating, Blackgrass [5, 17]: 100 | Plant response rating, Blackgrass [5, 18]: 100 | Blackgrass plant response rating ([5]; Preemergence, scale 0 to 100): 80 | Plant response rating, Russian Thistle [6, 19]: 0 | Plant response rating, Russian Thistle ([6]; 62 g ai/ha, scale 0 to 100): 80 | Russian Thistle plant response rating ([6]; 8 g ai/ha, scale 0 to 100): 0 | Johnsongrass plant response rating ([7]; postemergence, 0-100 scale): 0 | Plant response rating, Johnsongrass [7, 13]: 50 | Plant response rating, Johnsongrass [7, 14]: 95 | Plant response rating, Johnsongrass [7, 15]: 100 | Plant response rating, Johnsongrass [7, 17]: 40 | Plant response rating, Johnsongrass [7, 18]: 100 | Johnsongrass plant response rating ([7]; Preemergence, scale 0 to 100): 0 | Plant response rating, Nightshade, E. B. [8, 19]: 0 | Plant response rating, Nightshade, E. B. [8, 20]: 0 | Plant response rating, Nightshade, E. B. ([8]; 62 g ai/ha, scale 0 to 100): 0 | Nightshade, E. B. plant response rating ([8]; 8 g ai/ha, scale 0 to 100): 0 | Kochia plant response rating (kochia (Kochia scoparia); 8 g ai/ha, postemergence, 0-100 scale): 0 | Plant response rating, Kochia (kochia (Kochia scoparia); 16 g ai/ha, scale 0 to 100): 0 | Plant response rating, Kochia (kochia (Kochia scoparia); 31 g ai/ha, scale 0 to 100, 0 no effect, 100 complete control): 0 | Plant response rating, Kochia (kochia (Kochia scoparia); 62 g ai/ha, scale 0 to 100, 0 no effect, 100 complete control): 0 | Cupgrass, Woolly plant response rating ([9]; postemergence, 0-100 scale): 85 | Plant response rating, Cupgrass, Woolly [9, 13]: 90 | Plant response rating, Cupgrass, Woolly [9, 14]: 95 | Plant response rating, Cupgrass, Woolly [9, 15]: 95 | Plant response rating, Cupgrass, Woolly [9, 16]: 85 | Plant response rating, Cupgrass, Woolly [9, 17]: 98 | Plant response rating, Cupgrass, Woolly [9, 18]: 100 | Cupgrass, Woolly plant response rating ([9]; Preemergence, scale 0 to 100): 85 | Foxtail, Giant plant response rating ([10]; postemergence, 0-100 scale): 0 | Plant response rating, Foxtail, Giant [10, 13]: 35 | Plant response rating, Foxtail, Giant [10, 14]: 60 | Plant response rating, Foxtail, Giant [10, 15]: 60 | Plant response rating, Foxtail, Giant [10, 16]: 100 | Plant response rating, Foxtail, Giant [10, 17]: 100 | Plant response rating, Foxtail, Giant [10, 18]: 100 | Foxtail, Giant plant response rating ([10]; Preemergence, scale 0 to 100): 100 | Ragweed plant response rating ([11]; postemergence, 0-100 scale): 0 | Plant response rating, Ragweed [11, 13]: 0 | Plant response rating, Ragweed [11, 14]: 0 | Plant response rating, Ragweed [11, 15]: 0 | Plant response rating, Ragweed [11, 16]: 0 | Plant response rating, Ragweed [11, 17]: 0 | Plant response rating, Ragweed [11, 18]: 0 | Ragweed plant response rating ([11]; Preemergence, scale 0 to 100): 0 | Plant response rating, Galium [12, 19]: 0 | Plant response rating, Galium [12, 20]: 0 | Plant response rating, Galium ([12]; 62 g ai/ha, scale 0 to 100): 0 | Galium plant response rating ([12]; 8 g ai/ha, scale 0 to 100): 0
